Measurements taken from patent US7118895B2, “Process for producing aglycon by using diglycosidase and flavor-improved food containing the aglycon and converting agent to be used in the process” (Amano Enzyme Inc., priority 2000, dated 2006).

How the values were obtained:
[1] = system: Diglycosidase derived from P. multicolor; assay: Reactivity toward various isoflavone glycosides (HPLC); type: biochemical, Penicillium multicolor; design: glucoside / aglycon: unit not given here; settings: 55 °C, pH 4.0
Summary of the method: (§1)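 Enzymes at 0.75 AU/mL in pH 4.0 acetate buffer were reacted at 55° C with individual isoflavone glycosides (substrate stock 2 mM in methanol) in 20 mM acetate pH 4.0. Aglycone release followed at 0, 1, 3 and 6 h: ethanol-quenched, ODS HPLC with UV 260 nm, quantified against calibration curves.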

[2] = system: β-Glucosidase derived from A. niger; assay: as above; type: biochemical, Aspergillus niger; design: glucoside / aglycon: unit not given here; settings: 55 °C, pH 4.0
Summary of the method: as §1

[3] = system: Crude diglycosidase; assay: Examination of substrate concentration in the conversion into isoflavone aglycons by diglycosidase using soybean materials; type: biochemical, Penicillium multicolor IAM7153;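 as to Decomposition efficiency: ratio of each glycoside/aglycon within its isoflavone family: percent of the isoflavone family total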
Summary of the method: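 Soybean materials (roasted soy flour, soymilk, defatted soybean, concentrated soy protein) at 2–30% (w/v) in 20 mM acetate pH 4.0 were reacted with crude diglycosidase at 55° C with shaking; enzyme solution added was 1.88 AU/mL. Samples taken at 0, 1, 3 and 6 h were ethanol-extracted and analyzed by HPLC.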

O=c1c(-c2ccc(O)cc2)coc2cc(O[C@@H]3O[C@H](CO)[C@@H](O)[C@H](O)[C@H]3O)ccc12 [daidzin]
aglycon ([1]; Reaction time 0 h): 0.9 | glucoside ([1]; Reaction time 0 h): 99.1 | aglycon ([1]; Reaction time 1 h): 70.1 | glucoside ([1]; Reaction time 1 h): 29.9 | aglycon ([1]; Reaction time 3 h): 81.8 | glucoside ([1]; Reaction time 3 h): 18.2 | aglycon ([1]; Reaction time 6 h): 88.5 | glucoside ([1]; Reaction time 6 h): 11.5 | reactivity of β-glucosidase derived from Aspergillus niger (in words) [2]: act well | aglycon ([2]; Reaction time 0 h): 0 | glucoside ([2]; Reaction time 0 h): 100 | aglycon ([2]; Reaction time 1 h): 100 | glucoside ([2]; Reaction time 1 h): 0 | aglycon ([2]; Reaction time 3 h): 100 | glucoside ([2]; Reaction time 3 h): 0 | aglycon ([2]; Reaction time 6 h): 100 | glucoside ([2]; Reaction time 6 h): 0 | Decomposition efficiency: ratio of each glycoside/aglycon within its isoflavone family ([3]; roasted soy flour, substrate concentration 2%, heat treatment of enzyme no, reaction time 0 h): 30.2% | Decomposition efficiency: ratio of each glycoside/aglycon within its isoflavone family ([3]; roasted soy flour, substrate concentration 2%, heat treatment of enzyme no, reaction time 1 h): not detected | Decomposition efficiency: ratio of each glycoside/aglycon within its isoflavone family ([3]; roasted soy flour, substrate concentration 2%, heat treatment of enzyme no, reaction time 3 h): not detected | Decomposition efficiency: ratio of each glycoside/aglycon within its isoflavone family ([3]; roasted soy flour, substrate concentration 2%, heat treatment of enzyme no, reaction time 6 h): not detected | Decomposition efficiency: ratio of each glycoside/aglycon within its isoflavone family ([3]; roasted soy flour, substrate concentration 2%, heat treatment of enzyme yes, reaction time 6 h): 46.6% | Decomposition efficiency: ratio of each glycoside/aglycon within its isoflavone family ([3]; roasted soy flour, substrate concentration 5%, heat treatment of enzyme no, reaction time 0 h): 46.1% | Decomposition efficiency: ratio of each glycoside/aglycon within its isoflavone family ([3]; roasted soy flour, substrate concentration 5%, heat treatment of enzyme no, reaction time 1 h): not detected | Decomposition efficiency: ratio of each glycoside/aglycon within its isoflavone family ([3]; roasted soy flour, substrate concentration 5%, heat treatment of enzyme no, reaction time 3 h): not detected | Decomposition efficiency: ratio of each glycoside/aglycon within its isoflavone family ([3]; roasted soy flour, substrate concentration 5%, heat treatment of enzyme no, reaction time 6 h): not detected | Decomposition efficiency: ratio of each glycoside/aglycon within its isoflavone family ([3]; roasted soy flour, substrate concentration 5%, heat treatment of enzyme yes, reaction time 6 h): 46.1% | Decomposition efficiency: ratio of each glycoside/aglycon within its isoflavone family ([3]; roasted soy flour, substrate concentration 10%, heat treatment of enzyme no, reaction time 0 h): 60.1% | Decomposition efficiency: ratio of each glycoside/aglycon within its isoflavone family ([3]; roasted soy flour, substrate concentration 10%, heat treatment of enzyme no, reaction time 1 h): not detected | Decomposition efficiency: ratio of each glycoside/aglycon within its isoflavone family ([3]; roasted soy flour, substrate concentration 10%, heat treatment of enzyme no, reaction time 3 h): not detected | Decomposition efficiency: ratio of each glycoside/aglycon within its isoflavone family ([3]; roasted soy flour, substrate concentration 10%, heat treatment of enzyme no, reaction time 6 h): not detected | Decomposition efficiency: ratio of each glycoside/aglycon within its isoflavone family ([3]; roasted soy flour, substrate concentration 10%, heat treatment of enzyme yes, reaction time 6 h): 47.5% | Decomposition efficiency: ratio of each glycoside/aglycon within its isoflavone family ([3]; roasted soy flour, substrate concentration 20%, heat treatment of enzyme no, reaction time 0 h): 50.3% | Decomposition efficiency: ratio of each glycoside/aglycon within its isoflavone family ([3]; roasted soy flour, substrate concentration 20%, heat treatment of enzyme no, reaction time 1 h): not detected | Decomposition efficiency: ratio of each glycoside/aglycon within its isoflavone family ([3]; roasted soy flour, substrate concentration 20%, heat treatment of enzyme no, reaction time 3 h): not detected | Decomposition efficiency: ratio of each glycoside/aglycon within its isoflavone family ([3]; roasted soy flour, substrate concentration 20%, heat treatment of enzyme no, reaction time 6 h): not detected | Decomposition efficiency: ratio of each glycoside/aglycon within its isoflavone family ([3]; roasted soy flour, substrate concentration 20%, heat treatment of enzyme yes, reaction time 6 h): 48.6% | Decomposition efficiency: ratio of each glycoside/aglycon within its isoflavone family ([3]; roasted soy flour, substrate concentration 30%, heat treatment of enzyme no, reaction time 0 h): 47.7% | Decomposition efficiency: ratio of each glycoside/aglycon within its isoflavone family ([3]; roasted soy flour, substrate concentration 30%, heat treatment of enzyme no, reaction time 1 h): not detected | Decomposition efficiency: ratio of each glycoside/aglycon within its isoflavone family ([3]; roasted soy flour, substrate concentration 30%, heat treatment of enzyme no, reaction time 3 h): not detected | Decomposition efficiency: ratio of each glycoside/aglycon within its isoflavone family ([3]; roasted soy flour, substrate concentration 30%, heat treatment of enzyme no, reaction time 6 h): not detected | Decomposition efficiency: ratio of each glycoside/aglycon within its isoflavone family ([3]; roasted soy flour, substrate concentration 30%, heat treatment of enzyme yes, reaction time 6 h): 49.0% | Decomposition efficiency: ratio of each glycoside/aglycon within its isoflavone family ([3]; soymilk, substrate concentration 2%, heat treatment of enzyme no, reaction time 0 h): 53.5% | Decomposition efficiency: ratio of each glycoside/aglycon within its isoflavone family ([3]; soymilk, substrate concentration 2%, heat treatment of enzyme no, reaction time 1 h): not detected | Decomposition efficiency: ratio of each glycoside/aglycon within its isoflavone family ([3]; soymilk, substrate concentration 2%, heat treatment of enzyme no, reaction time 3 h): not detected | Decomposition efficiency: ratio of each glycoside/aglycon within its isoflavone family ([3]; soymilk, substrate concentration 2%, heat treatment of enzyme no, reaction time 6 h): not detected | Decomposition efficiency: ratio of each glycoside/aglycon within its isoflavone family ([3]; soymilk, substrate concentration 2%, heat treatment of enzyme yes, reaction time 6 h): 39.8% | Decomposition efficiency: ratio of each glycoside/aglycon within its isoflavone family ([3]; soymilk, substrate concentration 5%, heat treatment of enzyme no, reaction time 0 h): 34.2% | Decomposition efficiency: ratio of each glycoside/aglycon within its isoflavone family ([3]; soymilk, substrate concentration 5%, heat treatment of enzyme no, reaction time 1 h): not detected | Decomposition efficiency: ratio of each glycoside/aglycon within its isoflavone family ([3]; soymilk, substrate concentration 5%, heat treatment of enzyme no, reaction time 3 h): not detected | Decomposition efficiency: ratio of each glycoside/aglycon within its isoflavone family ([3]; soymilk, substrate concentration 5%, heat treatment of enzyme no, reaction time 6 h): not detected | Decomposition efficiency: ratio of each glycoside/aglycon within its isoflavone family ([3]; soymilk, substrate concentration 5%, heat treatment of enzyme yes, reaction time 6 h): 40.5% | Decomposition efficiency: ratio of each glycoside/aglycon within its isoflavone family ([3]; soymilk, substrate concentration 10%, heat treatment of enzyme no, reaction time 0 h): 34.6% | Decomposition efficiency: ratio of each glycoside/aglycon within its isoflavone family ([3]; soymilk, substrate concentration 10%, heat treatment of enzyme no, reaction time 1 h): not detected | Decomposition efficiency: ratio of each glycoside/aglycon within its isoflavone family ([3]; soymilk, substrate concentration 10%, heat treatment of enzyme no, reaction time 3 h): not detected | Decomposition efficiency: ratio of each glycoside/aglycon within its isoflavone family ([3]; soymilk, substrate concentration 10%, heat treatment of enzyme no, reaction time 6 h): not detected | Decomposition efficiency: ratio of each glycoside/aglycon within its isoflavone family ([3]; soymilk, substrate concentration 10%, heat treatment of enzyme yes, reaction time 6 h): 39.4% | Decomposition efficiency: ratio of each glycoside/aglycon within its isoflavone family ([3]; soymilk, substrate concentration 20%, heat treatment of enzyme no, reaction time 0 h): 34.1% | Decomposition efficiency: ratio of each glycoside/aglycon within its isoflavone family ([3]; soymilk, substrate concentration 20%, heat treatment of enzyme no, reaction time 1 h): not detected | Decomposition efficiency: ratio of each glycoside/aglycon within its isoflavone family ([3]; soymilk, substrate concentration 20%, heat treatment of enzyme no, reaction time 3 h): not detected | Decomposition efficiency: ratio of each glycoside/aglycon within its isoflavone family ([3]; soymilk, substrate concentration 20%, heat treatment of enzyme no, reaction time 6 h): not detected | Decomposition efficiency: ratio of each glycoside/aglycon within its isoflavone family ([3]; soymilk, substrate concentration 20%, heat treatment of enzyme yes, reaction time 6 h): 39.8% | Decomposition efficiency: ratio of each glycoside/aglycon within its isoflavone family ([3]; soymilk, substrate concentration 30%, heat treatment of enzyme no, reaction time 0 h): 34.9% | Decomposition efficiency: ratio of each glycoside/aglycon within its isoflavone family ([3]; soymilk, substrate concentration 30%, heat treatment of enzyme no, reaction time 1 h): not detected | Decomposition efficiency: ratio of each glycoside/aglycon within its isoflavone family ([3]; soymilk, substrate concentration 30%, heat treatment of enzyme no, reaction time 3 h): not detected | Decomposition efficiency: ratio of each glycoside/aglycon within its isoflavone family ([3]; soymilk, substrate concentration 30%, heat treatment of enzyme no, reaction time 6 h): not detected | Decomposition efficiency: ratio of each glycoside/aglycon within its isoflavone family ([3]; soymilk, substrate concentration 30%, heat treatment of enzyme yes, reaction time 6 h): 40.0% | Decomposition efficiency of daidzin family in defatted soybean ([3]; substrate concentration 2%, heat treatment of enzyme no, reaction time 0 h): 42.3 | Decomposition efficiency of daidzin family in defatted soybean ([3]; substrate concentration 2%, heat treatment of enzyme no, reaction time 1 h): not detected | Decomposition efficiency of daidzin family in defatted soybean ([3]; substrate concentration 2%, heat treatment of enzyme no, reaction time 3 h): not detected | Decomposition efficiency of daidzin family in defatted soybean ([3]; substrate concentration 2%, heat treatment of enzyme no, reaction time 6 h): not detected | Decomposition efficiency of daidzin family in defatted soybean ([3]; substrate concentration 2%, heat treatment of enzyme yes, reaction time 6 h): 43.7 | Decomposition efficiency of daidzin family in defatted soybean ([3]; substrate concentration 5%, heat treatment of enzyme no, reaction time 0 h): 44.0 | Decomposition efficiency of daidzin family in defatted soybean ([3]; substrate concentration 5%, heat treatment of enzyme no, reaction time 1 h): not detected | Decomposition efficiency of daidzin family in defatted soybean ([3]; substrate concentration 5%, heat treatment of enzyme no, reaction time 3 h): not detected | Decomposition efficiency of daidzin family in defatted soybean ([3]; substrate concentration 5%, heat treatment of enzyme no, reaction time 6 h): not detected | Decomposition efficiency of daidzin family in defatted soybean ([3]; substrate concentration 5%, heat treatment of enzyme yes, reaction time 6 h): 45.8 | Decomposition efficiency of daidzin family in defatted soybean ([3]; substrate concentration 10%, heat treatment of enzyme no, reaction time 0 h): 45.6 | Decomposition efficiency of daidzin family in defatted soybean ([3]; substrate concentration 10%, heat treatment of enzyme no, reaction time 1 h): not detected | Decomposition efficiency of daidzin family in defatted soybean ([3]; substrate concentration 10%, heat treatment of enzyme no, reaction time 3 h): not detected | Decomposition efficiency of daidzin family in defatted soybean ([3]; substrate concentration 10%, heat treatment of enzyme no, reaction time 6 h): not detected | Decomposition efficiency of daidzin family in defatted soybean ([3]; substrate concentration 10%, heat treatment of enzyme yes, reaction time 6 h): 47.5
